Data from patent publication US10647591B2, “High-magnesium concentrated liquid” (QUALITY PURE CO., LTD., priority 2016, dated 2020).

What was measured:
ovariectomized rats [1] = test: serum test (calcium, magnesium, potassium, sodium, phosphor) of ovariectomized rats fed with the test agents; conditions: Comparison 2 (OVXC): ovariectomized rats, calcium citrate 0.5 g/kg, no liquid
Description: (§1) Owing to hormone variation, menopausal females lose their bones fast and suffer from osteoporosis easily. The rats used in the experiment groups, control group, and comparison groups are female Sprague-Dawley rats. The rats are fed with different proportions of the high-magnesium potable water beforehand. Then, the serum and tissue slices of the rats are analyzed.
(§2) The dosages of the high-magnesium concentrated liquid fed to the rats in experiment groups, control group and comparison groups are shown in Table.1. The unit of the dosage is milliliter or gram per kilogram of body weight. The control group is the group of unovariectomized rats. The supply of calcium citrate is to learn the influence of calcium on osteoporosis.

ovariectomized rats [2] = test: Micro-CT bone density and trabecula images of ovariectomized rats; type: in vivo, female Sprague-Dawley rats; conditions: Comparison Group II, calcium citrate 0.5 g/kg, no liquid
Description: as §1, §2
FIGS. 2A-2F are respectively the images of the bone densities of the rats of Experiment Group I, Experiment Group II, Experiment Group III, Control Group, Comparison Group I, and Comparison Group II. FIGS. 3A-3F are respectively the trabecula images of the rats of Experiment Group I, Experiment Group II, Experiment Group III, Control Group, Comparison Group I, and Comparison Group II.

ovariectomized rats [3] = test: serum test (ALP, BUN, CRE, GOT, GPT) of ovariectomized rats fed with the test agents; conditions: Comparison 2 (OVXC): ovariectomized rats, calcium citrate 0.5 g/kg, no liquid
Description: as §1, §2

Work on `O=C([O-])CC(O)(CC(=O)[O-])C(=O)[O-].O=C([O-])CC(O)(CC(=O)[O-])C(=O)[O-].[Ca+2].[Ca+2].[Ca+2]` [Calcium Citrate, calcium citrate] yielded a Calcium in serum (ovariectomized rats [1]) of 12.4 mg/dL, a Phosphor in serum (ovariectomized rats [1]) of 8 mg/dL and a Potassium in serum (ovariectomized rats [1]) of 5.8 mmol/L. The Sodium in serum (ovariectomized rats [1]) was 143 mmol/L, the “bone density (Micro-CT images)” value (ovariectomized rats [2]; FIG. 2F) was “lower bone density” and the “trabecula distribution (Micro-CT images)” value (ovariectomized rats [2]; FIG. 3F) was “less compact trabecula distribution”. For the same compound, the ALP in serum (ovariectomized rats [3]) was 130 U/L, the BUN in serum (ovariectomized rats [3]) was 17 mg/dL and the CRE in serum (ovariectomized rats [3]) was 0.85 mg/dL. For the same compound, the GOT in serum (ovariectomized rats [3]) was 75 U/L and the GPT in serum (ovariectomized rats [3]) was 75 U/L.
